Legend:
Experiment in all cases: relative viability (nuclei count vs DMSO), 5 days (fraction); higher = more cells survive
[1] = compound: C(C(=O)C(=O)O)Br [Bromopyruvate] + CC1(C)CCC(c2ccc(Cl)cc2)=C(CN2CCN(c3ccc(C(=O)NS(=O)(=O)c4ccc(N[C@H](CCN5CCOCC5)CSc5ccccc5)c(S(=O)(=O)C(F)(F)F)c4)cc3)CC2)C1 [Navitoclax] (partner 0.5 µM)
In short: (§1)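 Dosing by pin tool came one day after lung cancer cell lines were seeded in 1536-well plates, using either one drug or a fixed anchor-drug dose plus five library-drug doses (not always all listed) in √10 steps. After 5 days, nuclei were counted on 4× images. Relative viability is treated-well nuclei count divided by vehicle-well nuclei count, and values are medians of duplicate plates.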

[2] = compound: C(C(=O)C(=O)O)Br [Bromopyruvate] + COc1cc2c(Oc3ccc(NC(=O)C4(C(=O)Nc5ccc(F)cc5)CC4)cc3F)ccnc2cc1OCCCN1CCOCC1 [Foretinib] (partner 0.25 µM)
In short: as §1

Bicalutamide = compound: CC(O)(CS(=O)(=O)c1ccc(F)cc1)C(=O)Nc1ccc(C#N)c(C(F)(F)F)c1 [Bicalutamide]
In short: (§2)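 Nuclei counted with MetaXpress define viability as the ratio of treated to vehicle wells, given as a median across plates. The lung cancer cell lines were in 1536-well plates, pinned with five √10-spaced library-drug doses and imaged at 4× after 5 days and Hoechst staining. Plates passed with control CV below 25% and at least one doubling.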

Bromopyruvate = compound: C(C(=O)C(=O)O)Br [Bromopyruvate]
In short: as §2

Cell Line	relative viability ([1]; first compound 1 µM)	relative viability ([1]; first compound 3.162 µM)	relative viability ([1]; first compound 10 µM)	relative viability ([1]; first compound 31.62 µM)	relative viability ([1]; first compound 100 µM)	relative viability ([2]; first compound 1 µM)	relative viability ([2]; first compound 3.162 µM)	relative viability ([2]; first compound 10 µM)	relative viability ([2]; first compound 31.62 µM)	relative viability ([2]; first compound 100 µM)	relative viability (Bicalutamide; 0.08 µM)	relative viability (Bicalutamide; 0.253 µM)	relative viability (Bicalutamide; 0.8 µM)	relative viability (Bicalutamide; 2.53 µM)	relative viability (Bromopyruvate; 1 µM)	relative viability (Bromopyruvate; 3.162 µM)	relative viability (Bromopyruvate; 10 µM)	relative viability (Bromopyruvate; 31.62 µM)	relative viability (Bromopyruvate; 100 µM)
NCI-H520	1.05	1.08	1.21	1.18	1.03	0.83	0.805	0.646	0.859	0.895	0.948	0.952	1.17	0.906	0.926	1.17	0.989	1.07	0.855
NCI-H727	0.469	0.526	0.401	0.425	0.509	0.9	1.08	0.728	0.93	0.802	1.02	0.807	1.13	1.05	0.959	1.19	1.09	1.08	1.03
NCI-H1793	0.673	0.376	0.377	0.516	0.511	0.718	0.821	0.833	0.736	0.684	0.823	0.736	1.02	0.809	1.03	1.09	1.12	0.959	1.08
NCI-H1734	0.76	0.799	0.975	0.809	0.886	0.888	0.923	1.03	0.807	0.824	0.991	0.886	1.14	0.926	0.971	1.02	1.15	1	0.979
LXF-289	0.983	0.987	0.898	0.99	1.02	1.02	0.997	0.965	1.01	1.04	0.998	0.958	0.984	0.979	1.03	1.01	1.04	1.03	1.02
H3255	0.575	0.603	0.512	0.504	0.512	0.902	0.806	0.93	0.938	0.922	0.969	0.896	1.02	0.907	0.953	0.999	1.02	1.01	1.12
201T	1.28	1.15	1.18	1.2	1.19	1.15	1.08	1.29	1.21	1.29	1.02	0.932	1.02	1.01	1.03	0.983	1.04	0.946	0.997
NCI-H2228	0.936	0.698	0.864	0.469	0.63	0.798	0.82	0.941	0.754	0.794	0.798	0.967	1.56	1.09	1.07	1.04	1.27	0.851	1.02
HOP-62	1.05	0.961	1.12	1.08	0.899	1.12	1.17	1.12	0.95	0.815	1.12	0.988	1.06	1.03	1.06	0.981	0.936	1.03	1.03
CAL-12T	1.06	1.23	1.34	1.34	1.08	1.14	1.05	1.09	1.07	1.06	1.03	0.855	1.11	0.842	0.972	0.982	0.919	0.982	0.956
NCI-H596	0.871	0.964	1.1	0.877	1.07	0.86	0.946	1.02	0.685	0.232	0.956	0.953	1.07	1.12	1.09	0.982	1.03	0.862	1.12
NCI-H1755	1.06	1.02	0.977	1.03	1.03	0.936	0.923	0.925	0.909	0.937	0.988	1.01	1.05	0.876	0.977	0.964	1.06	1.01	1.02
NCI-H2085	1.08	1.19	1.25	1.07	1.05	0.865	1.06	0.964	0.779	0.465	1.01	0.955	1.01	0.94	1	1.04	1.03	1.07	1.02
NCI-H2023	0.97	1.06	1.06	1.09	1.06	0.716	0.776	0.813	0.985	0.806	1.01	0.903	1.17	0.907	0.893	0.962	1.15	0.958	0.959
